The assay can be described thus: Antioxidant activity assessed as peroxide value relative to control. In kind it is functional.

In the case of `Cc1cc(C(C)(C)C)c(O)c(C(C)(C)C)c1`, the Activity (milliequivalent/kg) came to 0.031.

Turning to `Oc1c(Br)cc2[nH]ccc2c1O`, the Activity (milliequivalent/kg) came to 0.194.

As for `Oc1cc2cc[nH]c2cc1Br`, the Activity (milliequivalent/kg) worked out at 0.036.

On to `Oc1cc(Br)c(O)c2[nH]ccc12`, for which the Activity (milliequivalent/kg) is 0.106.

In the case of `Cc1c(C)c2c(c(C)c1O)CC[C@@](C)(CCC[C@H](C)CCC[C@H](C)CCCC(C)C)O2`, the Activity (milliequivalent/kg) turned out to be 0.062.

Values taken from ChEMBL document CHEMBL1150936, “Antioxidative bromoindole derivatives from the mid-intestinal gland of the muricid gastropod Drupella fragum” (J Nat Prod, 1998).
